Assay results taken from patent US20080093247A1, “PACKAGING MATERIALS FOR FORMULATIONS CONTAINING 2-PYRROLIDONE DERIVATIVES” (Alcon Manufacturing Ltd., priority 2006, published 2008).
Values joined by “and” are separate entries in the source; they are usually repeats but may differ in a detail not shown here. Identical values can stand only once.

Tests used:
[1] = Retention of N-dodecyl-2-pyrrolidone (DDP) in formulations stored in various packaging materials, HPLC; type: physicochemical
Experimental: A material substantially lacking absorptive and adsorptive properties for a 5-(R1)-N-(R2)-2-pyrrolidone. A material substantially lacking absorptive and adsorptive properties for a 5-(R1)-N-(R2)-2-pyrrolidone is determined by packaging a 5-(R1)-N-(R2)-2-pyrrolidone-containing formulation in a bottle made from a test material, removing samples from the formulation at different storage times, and testing for the presence of the 2-pyrrolidone derivative. For example, presence of N-dodecyl-2-pyrrolidone (DDP) within a test sample is determined quantitatively using HPLC analysis as described in the examples provided infra.
The serotonergic formulation set forth in Table 1 was compounded in a glass bottle using techniques known to those skilled in the art. The formulation was tested for starting DDP concentration and then a volume was filled into different types of packaging materials as set forth in Table 2. The filled packages were then stored at the conditions indicated in Table 2, either room temperature or constant temperature ovens at 40° C. and 60° C. The thermal exposure testing was used to simulate the ability of container material to retain and deliver DDP in solution over a period of time or after prolonged increased thermal exposure. The tests were performed on duplicate containers to verify DDP concentration remaining in solution.
Concentration of DDP in each formulation was determined by chromatographic separation. The tests were performed on a WATERS ALLIANCE HPLC system with a CADENZA C18 column using a mobile phase consisting of 85% acetonitrile and 15% 1-octanesulfonic acid/water at room temperature. Absorbance was monitored at 220 nm, the known absorption wavelength of DDP. Linear range of detection for DDP was from 1.0 to 100.0 ppm. Retention time of DDP using this system is 8.3 minutes.
In further reference to Table 2, “Glass Vial” is a 1.5 mL clear borosilicate glass vial sealed with a TEFLON® lined septa and aluminum crimp seal (AGILENT HPLC vials part number 5182-0543). “White PETE” is a 60 mL cylindrical bottle made from polyethylene terephthalate (PETE) resin containing a white colorant, titanium dioxide (ALCON part number X04715). “Natural sPP” is a 4 mL oval bottle made from syndiotactic polypropylene (sPP) resin without colorant, i.e., natural (ALCON part number 281277). “Natural TEFLON®” is a 30 mL cylindrical bottle made from fluorinated ethylene propylene (TEFLON® FEP) polymer without colorant by NALGENE® (VWR part number 16071-008).
The serotonergic formulation set forth in Table 3 was compounded in the same manner as the Table 1 formulation. The test, the method of testing, and the packaging were as for the Table 1 formulation.
The formulation set forth in Table 5 was compounded in the same manner as the Table 1 formulation. The test, the method of testing, and the packaging were as for the Table 1 formulation.
The formulation set forth in Table 7 was compounded in the same manner as the Table 1 formulation. The test, the method of testing, and the packaging were as for the Table 1 formulation, except as indicated. “White LDPE” is an 8 mL cylindrical bottle made from low-density polyethylene (LDPE) with white colorant and is ALCON part number 277027. “Natural Polystyrene” is a 150 mL cylindrical bottle made of polystyrene polymer without colorant and is CORNING filter flask product 431153.

[2] = cited from earlier work

CCCCCCCCCCCCN1CCCC1=O [DDP, N-dodecyl-2-pyrrolidone]
DDP concentration in formulation ([1]; Table 1 formulation, Glass Vial 1.5 mL Fill, 1 day @ 40° C.): 9.5 ppm and 9.6 ppm | DDP concentration in formulation ([1]; Table 1 formulation, Glass Vial 1.5 mL Fill, 1 day @ 60° C.): 10 ppm and 9.6 ppm | DDP concentration in formulation ([1]; Table 1 formulation, Glass Vial 1.5 mL Fill, 1 day @ RT): 9.2 ppm and 9.3 ppm | DDP concentration in formulation ([1]; Table 1 formulation, Glass Vial 1.5 mL Fill, 2 days @ 40° C.): 9.3, 9.3 ppm | DDP concentration in formulation ([1]; Table 1 formulation, Glass Vial 1.5 mL Fill, 2 days @ 60° C.): 9.4 ppm and 9.1 ppm | DDP concentration in formulation ([1]; Table 1 formulation, Glass Vial 1.5 mL Fill, 5 days @ 40° C.): 8.8 ppm and 9.1 ppm | DDP concentration in formulation ([1]; Table 1 formulation, Glass Vial 1.5 mL Fill, 5 days @ 60° C.): 8.9 ppm and 8.6 ppm | DDP concentration in formulation ([1]; Table 1 formulation, Glass Vial 1.5 mL Fill, 6 days @ RT): 9.0, 9.0 ppm | DDP concentration in formulation ([1]; Table 1 formulation, Natural TEFLON 10 mL Fill, 2 days @ 60° C.): 8.4 ppm | DDP concentration in formulation ([1]; Table 1 formulation, Natural TEFLON 10 mL Fill, 5 days @ 60° C.): 7.8 ppm | DDP concentration in formulation ([1]; Table 1 formulation, Natural sPP 4 mL Fill, 1 day @ 40° C.): 3.3 ppm and 3.4 ppm | DDP concentration in formulation ([1]; Table 1 formulation, Natural sPP 4 mL Fill, 1 day @ 60° C.): 1.3, 1.3 ppm | DDP concentration in formulation ([1]; Table 1 formulation, Natural sPP 4 mL Fill, 1 day @ RT): 6.1 ppm and 6.6 ppm | DDP concentration in formulation ([1]; Table 1 formulation, Natural sPP 4 mL Fill, 2 days @ 40° C.): 1.6 ppm and 1.7 ppm | DDP concentration in formulation ([1]; Table 1 formulation, Natural sPP 4 mL Fill, 2 days @ 60° C.): 1.2 ppm and 1.3 ppm | DDP concentration in formulation ([1]; Table 1 formulation, Natural sPP 4 mL Fill, 6 days @ RT): 4.0 ppm and 3.9 ppm | DDP concentration in formulation ([1]; Table 1 formulation, Start, before filling into packaging): 11,11 ppm and 11, 11 ppm | DDP concentration in formulation ([1]; Table 1 formulation, White PETE 10 mL Fill, 1 day @ 40° C.): 9.6 ppm and 9.3 ppm | DDP concentration in formulation ([1]; Table 1 formulation, White PETE 10 mL Fill, 1 day @ 60° C.): 8.1 ppm and 8.3 ppm | DDP concentration in formulation ([1]; Table 1 formulation, White PETE 10 mL Fill, 1 day @ RT): 9.8 ppm and 10 ppm | DDP concentration in formulation ([1]; Table 1 formulation, White PETE 10 mL Fill, 2 days @ 40° C.): 8.9 ppm and 9.4 ppm | DDP concentration in formulation ([1]; Table 1 formulation, White PETE 10 mL Fill, 2 days @ 60° C.): 7.4 ppm and 7.5 ppm | DDP concentration in formulation ([1]; Table 1 formulation, White PETE 10 mL Fill, 5 days @ 40° C.): 8.8 ppm and 9.3 ppm | DDP concentration in formulation ([1]; Table 1 formulation, White PETE 10 mL Fill, 5 days @ 60° C.): 6.1 ppm and 6.4 ppm | DDP concentration in formulation ([1]; Table 1 formulation, White PETE 10 mL Fill, 6 days @ RT): 9.1 ppm and 9.0 ppm | DDP concentration after thermal exposure (in words) ([1]; Table 1 formulation, sPP container, Tests 1, 2, and 3): drops significantly | DDP concentration in formulation ([1]; Table 3 formulation, Glass Vial 1.5 mL Fill, 1 day @ 40° C.): 20, 20 ppm | DDP concentration in formulation ([1]; Table 3 formulation, Glass Vial 1.5 mL Fill, 1 day @ 60° C.): 20, 20 ppm | DDP concentration in formulation ([1]; Table 3 formulation, Glass Vial 1.5 mL Fill, 1 day @ RT): 20, 20 ppm | DDP concentration in formulation ([1]; Table 3 formulation, Glass Vial 1.5 mL Fill, 2 days @ 40° C.): 19 ppm and 21 ppm | DDP concentration in formulation ([1]; Table 3 formulation, Glass Vial 1.5 mL Fill, 2 days @ 60° C.): 20 ppm and 19 ppm | DDP concentration in formulation ([1]; Table 3 formulation, Glass Vial 1.5 mL Fill, 5 days @ 40° C.): 20, 20 ppm | DDP concentration in formulation ([1]; Table 3 formulation, Glass Vial 1.5 mL Fill, 5 days @ 60° C.): 19, 19 ppm | DDP concentration in formulation ([1]; Table 3 formulation, Glass Vial 1.5 mL Fill, 6 days @ RT): 20, 20 ppm | DDP concentration in formulation ([1]; Table 3 formulation, Natural TEFLON 10 mL Fill, 2 days @ 60° C.): 19 ppm | DDP concentration in formulation ([1]; Table 3 formulation, Natural TEFLON 10 mL Fill, 5 days @ 60° C.): 19 ppm | DDP concentration in formulation ([1]; Table 3 formulation, Natural sPP 4 mL Fill, 1 day @ 40° C.): 13, 13 ppm | DDP concentration in formulation ([1]; Table 3 formulation, Natural sPP 4 mL Fill, 1 day @ 60° C.): 7.0, 7.0 ppm | DDP concentration in formulation ([1]; Table 3 formulation, Natural sPP 4 mL Fill, 1 day @ RT): 18, 18 ppm | DDP concentration in formulation ([1]; Table 3 formulation, Natural sPP 4 mL Fill, 2 days @ 40° C.): 10, 10 ppm | DDP concentration in formulation ([1]; Table 3 formulation, Natural sPP 4 mL Fill, 2 days @ 60° C.): 3.4 ppm and 3.2 ppm | DDP concentration in formulation ([1]; Table 3 formulation, Natural sPP 4 mL Fill, 5 days @ 40° C.): 6.1 ppm and 6.2 ppm | DDP concentration in formulation ([1]; Table 3 formulation, Natural sPP 4 mL Fill, 6 days @ RT): 15, 15 ppm | DDP concentration in formulation ([1]; Table 3 formulation, Start, before filling into packaging): 20, 20 ppm | DDP concentration in formulation ([1]; Table 3 formulation, White PETE 10 mL Fill, 1 day @ 40° C.): 20, 20 ppm | DDP concentration in formulation ([1]; Table 3 formulation, White PETE 10 mL Fill, 1 day @ 60° C.): 19 ppm and 20 ppm | DDP concentration in formulation ([1]; Table 3 formulation, White PETE 10 mL Fill, 1 day @ RT): 21 ppm and 20 ppm | DDP concentration in formulation ([1]; Table 3 formulation, White PETE 10 mL Fill, 2 days @ 40° C.): 20 ppm and 19 ppm | DDP concentration in formulation ([1]; Table 3 formulation, White PETE 10 mL Fill, 2 days @ 60° C.): 18 ppm and 19 ppm | DDP concentration in formulation ([1]; Table 3 formulation, White PETE 10 mL Fill, 5 days @ 40° C.): 20, 20 ppm | DDP concentration in formulation ([1]; Table 3 formulation, White PETE 10 mL Fill, 5 days @ 60° C.): 17 ppm and 18 ppm | DDP concentration in formulation ([1]; Table 3 formulation, White PETE 10 mL Fill, 6 days @ RT): 19 ppm and 20 ppm | available DDP in the contained solution (in words) ([1]; Table 3 formulation, sPP packaging relative to Glass Vial, PETE, and TEFLON, Tests 4, 5, and 6): significant reduction | DDP concentration in formulation ([1]; Table 5 formulation, Glass Vial 1.5 mL Fill, 1 day @ 40° C.): 9.0 ppm and 8.9 ppm | DDP concentration in formulation ([1]; Table 5 formulation, Glass Vial 1.5 mL Fill, 1 day @ RT): 8.7 ppm and 8.6 ppm | DDP concentration in formulation ([1]; Table 5 formulation, Glass Vial 1.5 mL Fill, 2 days @ 40° C.): 8.6 ppm and 8.2 ppm | DDP concentration in formulation ([1]; Table 5 formulation, Glass Vial 1.5 mL Fill, 6 days @ RT): 8.4 ppm and 8.2 ppm | DDP concentration in formulation ([1]; Table 5 formulation, Natural sPP 4 mL Fill, 1 day @ 40° C.): 0.3, 0.3 ppm | DDP concentration in formulation ([1]; Table 5 formulation, Natural sPP 4 mL Fill, 1 day @ RT): 1.1, 1.1 ppm | DDP concentration in formulation ([1]; Table 5 formulation, Start, before filling into packaging): 8.0, 8.0 ppm | DDP concentration in formulation ([1]; Table 5 formulation, White PETE 10 mL Fill, 1 day @ 40° C.): 5.5 ppm and 5.0 ppm | DDP concentration in formulation ([1]; Table 5 formulation, White PETE 10 mL Fill, 1 day @ RT): 6.3 ppm and 6.4 ppm | DDP concentration in formulation ([1]; Table 5 formulation, White PETE 10 mL Fill, 2 days @ 40° C.): 4.6 ppm and 4.5 ppm | DDP concentration in formulation ([1]; Table 5 formulation, White PETE 10 mL Fill, 6 days @ RT): 6.5 ppm and 6.4 ppm | available DDP in the contained solution (in words) ([1]; Table 5 formulation, sPP packaging relative to Glass Vial and PETE, Tests 7, 8, and 9): significant reduction | retaining DDP in the formulation (in words) ([1]; Table 7 formulation, Natural Polystyrene container, Tests 10, 11, and 12): essentially equivalent to the PETE container | loss of DDP from the formulation (in words) ([1]; Table 7 formulation, White LDPE container, Tests 10, 11, and 12): even more severe than the sPP container | loss of DDP from the formulation (in words) ([1]; Table 7 formulation, sPP container, Tests 10, 11, and 12): much greater than that of the Glass Vial or PETE containers | solubility in water [2]: up to 0.002%

CCCCCCCCN1CCCC1=O [N-octyl-2-pyrrolidone]
solubility in water [2]: up to 0.124%
